The text below walks through data of patent US20230203058A1, “MACROCYCLIC DIAMINE DERIVATIVES AS ENT INHIBITORS FOR THE TREATMENT OF CANCERS, AND COMBINATION THEREOF WITH ADENOSINE RECEPTOR ANTAGONISTS” (ITEOS BELGIUM SA, priority 2020, published 2023).

What is called pIC50 is −log10 of the IC50, conventionally taken in molar units. A lower pIC50 goes with a large IC50.

pIC50: −log10 of the molar value.

The test concerns the target T1, human ENT1 (Homo sapiens, UniProt Q99808).
T1 sequence (Q99808 1-456): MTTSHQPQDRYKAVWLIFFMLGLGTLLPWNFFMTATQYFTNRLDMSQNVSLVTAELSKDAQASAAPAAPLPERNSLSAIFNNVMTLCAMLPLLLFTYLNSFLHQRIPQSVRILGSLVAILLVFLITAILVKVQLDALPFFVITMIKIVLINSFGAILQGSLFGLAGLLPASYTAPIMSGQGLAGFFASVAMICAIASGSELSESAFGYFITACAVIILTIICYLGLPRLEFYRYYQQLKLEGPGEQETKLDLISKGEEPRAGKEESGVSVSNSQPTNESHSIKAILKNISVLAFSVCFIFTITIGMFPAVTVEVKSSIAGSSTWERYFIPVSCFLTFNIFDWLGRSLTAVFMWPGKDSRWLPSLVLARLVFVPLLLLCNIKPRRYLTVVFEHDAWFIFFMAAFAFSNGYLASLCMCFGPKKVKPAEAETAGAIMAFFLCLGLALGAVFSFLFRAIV
The test can be described thus: ENT1 binding assay (competition with Sahenta-DY647 on JAR cells). Details: JAR cells expressing ENT1 were bought from ATCC® (HTB-144TM); host or cells: JAR cells (human choriocarcinoma line; whole cells). The note with it: competition with Sahenta-DY647 100 nM, 4° C. Here is the method:
The present assay aims at showing that the compounds of the present invention can bind to human ENT1. The principle of the assay is a competition between the compounds of this invention and Sahenta-DY647, an ENT1 inhibitor that emits fluorescence (Ex = 630 nm, Em = 670 nm). By measuring the fluorescence at the end of the assay we could assess the binding potency of the compounds of the present invention.
JAR cells expressing ENT1 were bought from ATCC® (HTB-144TM). Cells were cultured in RPMI 1640 medium (LONZA®, #BE12-702F/U1) supplemented with 10% FBS (GIBCO®, #10270-106), 10 mM Hepes (LONZA®, #BE17-737E), 1 mM Sodium Pyruvate (LONZA®, #BE13-115E) and 2% Penicillin/Streptomycin (LONZA®, #DE17-603E) at 37° C. and 5% CO2. The assay was conducted on the following buffer: HBSS (LONZA®, #LO-527F) supplemented with 10 mM Hepes (LONZA®, #BE17-737E) and 0.1% BSA (Miltenyi®, #130-091-376) on the day of the assay. JAR cells were resuspended in the described buffer. Compounds of the present invention and Sahenta-DY647 were diluted 200X in the described buffer.
A total of 50000 cells were pre-incubated for 30 min at 4° C. with the compounds of the present invention before adding the corresponded IC90 of Sahenta-DY647 (100 nM) and incubate once more for 30 min at 4° C. The total volume of the reaction was 100 µL (50 µL of cells, 25 µL of the compounds of the present invention and 25 µL of Sahenta-DY647) in a 96 well plate, U-bottom (Greiner®, #650-180). The plates were washed 2X by centrifugation (4 min, 400 rcf at 4° C.) in the same buffer. Cells were resuspended in 70 µL of the buffer and 50 µL was transferred to a Black 384 Optiplate (PerkinElmer®, #6007279). Fluorescence (Ex = 630 nm, Em = 670 nm) was acquired on a Spectramax i3x (Molecular Devices®).
Take `COc1cc2cc(c1OC)OCCCC(OC(=O)CC(C)C)CCN1CCCN(CCCOC2=O)CC1` (stereo not drawn) [Compound 61, 74,75-dimethoxy-6-oxo-5,8-dioxa-1(1,4)-diazepana-7(1,3)-benzenacyclotetradecaphane-12-yl 3-methylbutanoate]: the pIC50 was 6.30 to 7.70. Under `COc1cc(C(=O)O[C@@H]2CCCOc3cc(cc(Cl)c3Cl)C(=O)OCCCN3CCCN(CC2)CC3)cc(OC)c1OC` [Compound 23, (12R)-74,75-dichloro-6-oxo-5,8-dioxa-1(1,4)-diazepana-7(1,3)-benzenacyclotetradecaphane-12-yl 3,4,5-trimethoxybenzoate] stands 6.30 to 7.70; under `COc1cc2cc(c1OC)OCCC[C@@H](OC(=O)c1ccccc1)CCN1CCCN(CCCOC2=O)CC1` [Compound 31, (12R)-74,75-dimethoxy-6-oxo-5,8-dioxa-1(1,4)-diazepana-7(1,3)-benzenacyclotetradecaphane-12-yl benzoate], 7.70 to 9.00.

Consider `COc1cc2cc(c1OC)OCCCC(OC(=O)CCn1cnnn1)CCN1CCCN(CCCOC2=O)CC1` (stereo not drawn) [Compound 98, 74,75-dimethoxy-6-oxo-5,8-dioxa-1(1,4)-diazepana-7(1,3)-benzenacyclotetradecaphane-12-yl 3-(1 H-tetrazol-1-yl)propanoate], for which the pIC50 is 7.70 to 9.00. Under `COc1cc2cc(c1OC)OCCCC(OC(=O)c1cc(Cl)cc(Cl)c1)CCN1CCCN(CCCOC2=O)CC1` (stereo not drawn) [Compound 76, 74,75-dimethoxy-6-oxo-5,8-dioxa-1(1,4)-diazepana-7(1,3)-benzenacyclotetradecaphane-12-yl 3,5-dichlorobenzoate] stands 6.30 to 7.70; under `CNC(=O)CCC(=O)OC1CCCOc2cc(cc(OC)c2OC)C(=O)OCCCN2CCCN(CC1)CC2` (stereo not drawn) [Compound 101, 74,75-dimethoxy-6-oxo-5,8-dioxa-1(1,4)-diazepana-7(1,3)-benzenacyclotetradecaphane-12-yl 4-(methylamino)-4-oxobutanoate], 7.70 to 9.00.

`COc1cc(C(=O)OC2CCCOc3cc(cc(Cl)c3Br)C(=O)NCCCN3CCCN(CC2)CC3)cc(OC)c1OC` (stereo not drawn) [Compound 122, 74-bromo-75-chloro-6-oxo-8-oxa-5-aza-1(1,4)-diazepana-7(1,3)-benzenacyclotetradecaphane-12-yl 3,4,5-trimethoxybenzoate] showed a pIC50 of 7.70 to 9.00. Turning to `COc1cc(C(=O)O[C@@H]2CCCn3ncc4c(Cl)cc(cc43)C(=O)NCCCN3CCCN(CC2)CC3)cc(OC)c1OC` [Compound 16, (10R)-14-chloro-2-oxo-11H-3-aza-1(6, 1)-indazola-7(1,4)-diazepanacyclotridecaphane-10-yl 3,4,5-trimethoxybenzoate], the pIC50 is 6.30 to 7.70. Turning to `COc1cc2cc(c1OC)OCCC[C@H](O)CCN1CCCN(CCCOC2=O)CC1` [Compound 40, (12S)-12-hydroxy-74,75-dimethoxy-5,8-dioxa-1(1,4)-diazepana-7(1,3)-benzenacyclotetradecaphan-6-one], the pIC50 was < 6.30.

`COc1cc2cc(c1OC)OCCCC(OC(=O)c1ccc(O)nc1)CCN1CCCN(CCCOC2=O)CC1` (stereo not drawn) [Compound 55, 74,75-dimethoxy-6-oxo-5,8-dioxa-1(1,4)-diazepana-7(1,3)-benzenacyclotetradecaphane-12-yl 6-hydroxynicotinate] showed a pIC50 of 7.70 to 9.00. The same measure for `COc1cc2cc(c1OC)OCCCC(O)CCN1CCCN(CCCNC2=O)CC1` (stereo not drawn) [Compound 117, 12-hydroxy-74,75-dimethoxy-8-oxa-5-aza-1(1,4) -diazepana-7(1,3)-benzenacyclotetradecaphan-6-one]: < 6.30; for `COc1cc2cc(c1OC)OCCCC(OC(=O)c1ccc3c(c1)CCC(=O)N3)CCN1CCCN(CCCOC2=O)CC1` (stereo not drawn) [Compound 74, 74,75-dimethoxy-6-oxo-5,8-dioxa-1(1,4)-diazepana-7(1,3)-benzenacyclotetradecaphane-12-yl 2-oxo-1,2,3,4-tetrahydroquinoline-6-carboxylate]: 7.70 to 9.00. As to `COc1cc2cc(c1OC)OCCCC(OC(=O)C1CCN(C)CC1)CCN1CCCN(CCCOC2=O)CC1` (stereo not drawn) [Compound 64, 74,75-dimethoxy-6-oxo-5,8-dioxa-1(1,4)-diazepana-7(1,3)-benzenacyclotetradecaphane-12-yl 1-methylpiperidine-4-carboxylate], the pIC50 is < 6.30.

In turn, `COc1cc2cc(c1OC)OCCCC(OC(=O)c1cccc(S(C)(=O)=O)c1)CCN1CCCN(CCCOC2=O)CC1` (stereo not drawn) [Compound 45, 74,75-dimethoxy-6-oxo-5,8-dioxa-1(1,4)-diazepana-7(1,3)-benzenacyclotetradecaphane-12-yl 3-(methylsulfonyl)benzoate] gave a pIC50 of 7.70 to 9.00.

Turning to `COc1cc2cc(c1OC)OCCCC(OC(=O)c1ccc(F)c(F)c1)CCN1CCCN(CCCOC2=O)CC1` (stereo not drawn) [Compound 85, 74,75-dimethoxy-6-oxo-5,8-dioxa-1(1,4)-diazepana-7(1,3)-benzenacyclotetradecaphane-12-yl 3,4-difluorobenzoate], the pIC50 is 7.70 to 9.00. `COc1cc2cc(c1OC)OCCCC(OC(=O)c1ccc(OC(F)(F)F)cc1)CCN1CCCN(CCCOC2=O)CC1` (stereo not drawn) [Compound 30, 74,75-dimethoxy-6-oxo-5,8-dioxa-1(1,4)-diazepana-7(1,3)-benzenacyclotetradecaphane-12-yl 4-(trifluoromethoxy)benzoate] had a negative-log IC50 (pIC50) of 6.30 to 7.70. As to `COc1cc(C(=O)O[C@H]2CCCn3ncc4c(Cl)cc(cc43)C(=O)NCCCN3CCCN(CC2)CC3)cc(OC)c1OC` [Compound 15, (10S)-14-chloro-2-oxo-11H-3-aza-1(6,1)-indazola-7(1,4)-diazepanacyclotridecaphane-10-yl 3,4,5-trimethoxybenzoate], the pIC50 was < 6.30. As for `COc1cc(C(=O)OC2CCCOc3cc(cc(Cl)c3C#N)C(=O)NCCCN3CCCN(CC2)CC3)cc(OC)c1OC` (stereo not drawn) [Compound 123, 75-chloro-74-cyano-6-oxo-8-oxa-5-aza-1(1,4)-diazepana-7(1,3)-benzenacyclotetradecaphane-12-yl 3,4,5-trimethoxybenzoate], the pIC50 is 7.70 to 9.00. The same measure for `COc1cc2cc(c1OC)OCCCC(OC(=O)c1ccc(F)cc1)CCN1CCCN(CCCOC2=O)CC1` (stereo not drawn) [Compound 29, 74,75-dimethoxy-6-oxo-5,8-dioxa-1(1,4)-diazepana-7(1,3)-benzenacyclotetradecaphane-12-yl 4-fluorobenzoate]: 7.70 to 9.00; for `CCOc1cc(C(=O)OC2CCCOc3cc(cc(OC)c3OC)C(=O)OCCCN3CCCN(CC2)CC3)cc(OCC)c1OCC` (stereo not drawn) [Compound 92, 74,75-dimethoxy-6-oxo-5,8-dioxa-1(1,4)-diazepana-7(1,3)-benzenacyclotetradecaphane-12-yl 3,4,5-triethoxybenzoate]: 7.70 to 9.00. The same measure for `COc1cc2cc(c1OC)OCCCC(OC(=O)c1cccc(C#N)c1)CCN1CCCN(CCCOC2=O)CC1` (stereo not drawn) [Compound 73, 74,75-dimethoxy-6-oxo-5,8-dioxa-1(1,4)-diazepana-7(1,3)-benzenacyclotetradecaphane-12-yl 3-cyanobenzoate]: 7.70 to 9.00; for `COc1cc2cc(c1OC)OCCC[C@@H](O/N=C/c1ccccc1)CCN1CCCN(CCCNC2=O)CC1` [Compound 115, (E)-benzaldehyde O-((12R)-74,75-dimethoxy-6-oxo-8-oxa-5-aza-1(1,4)-diazepana-7(1,3)-benzenacyclotetradecaphane-12-yl) oxime]: < 6.30. For `COc1cc(C(=O)OC2CCCOc3cc(cc(Cl)c3Cl)C(=O)OCCCN3CCCN(CC2)CC3)cc(OC)c1OC` (stereo not drawn) [Compound 21, 74,75-dichloro-6-oxo-5,8-dioxa-1(1,4)-diazepana-7(1,3)-benzenacyclotetradecaphane-12-yl 3,4,5-trimethoxybenzoate], the pIC50 is 7.70 to 9.00. `COc1cc2cc(c1OC)OCCCC(OC(=O)C1CNC(=O)C1)CCN1CCCN(CCCOC2=O)CC1` (stereo not drawn) [Compound 68, 74,75-dimethoxy-6-oxo-5,8-dioxa-1(1,4)-diazepana-7(1,3)-benzenacyclotetradecaphane-12-yl 5-oxopyrrolidine-3-carboxylate] showed a negative-log IC50 (pIC50) of 7.70 to 9.00.
